Source: article PMC12134935, “Scientific hypothesis generation by large language models: laboratory validation in breast cancer treatment” (Journal of the Royal Society Interface, 2025)
pIC50: −log10 of the molar value. Entries after “also recorded” stand apart in the source; their conditions may differ. Where two headings read alike, the source gives them in different places.

What was measured:
Assay type in all cases: cell-based
MCF7 [1] = assay: Single drug treatments, viability/toxicity; settings: for toxicity towards MCF7: doses up to 25 µM
MCF10A = assay: Single drug treatments, viability/toxicity; settings: Homo sapiens, MCF-10A, read-out: MCF10A IC50
Text: (§1) In our experiments, breast cancer cells were exemplified by MCF7 (an epithelial breast cancer cell line); non-tumorigenic breast cells were exemplified by the epithelial cell line MCF10A. We provided GPT4 with a prompt that had several aims:
(§2) In an additional experiment, 12 drugs were retested from the first round (n ≥ 3 replicates). An ANOVA two-way test with three replicates was used to calculate the significance of changes to viability compared with the internal control drug allopurinol for both cell lines (electronic supplementary material, figures S6 and S7). Two of the retested drugs were initially used as positive controls for MCF7 (doxorubicin and fulvestrant).

MCF7 versus MCF10A = assay: Single drug specificity towards MCF7 compared with MCF10A; settings: first round, MCF7 versus MCF10A viability
MCF7 [2] = assay: Single drug treatments, viability/toxicity; settings: for reduction of viability of MCF7: two-way ANOVA vs allopurinol, concentrations up to 3.84 µM; for pIC50: Homo sapiens, MCF7, retest of drugs from first round, n ≥ 3 replicates, MCF7
Text: as §1, §2

[3] = Homo sapiens, MCF7, single drug, first round, maximum dose 25 µM, read-out: MCF7 IC50
[4] = single drug, first round, maximum dose 25 µM
[5] = Homo sapiens, MCF7, read-out: MCF7 IC50

Compound `C[C@H]1O[C@H](O[C@H]2[C@H](O)[C@@H](O)[C@@H](O[C@H]3[C@H](O)[C@@H](O)C(O)O[C@@H]3CO)O[C@@H]2CO)[C@H](O)[C@@H](O)[C@@H]1N[C@H]1C=C(CO)[C@@H](O)[C@H](O)[C@H]1O` (stereo partly drawn) [acarbose] has a pIC50 (MCF7 [1]; [3]) of less than 4.60 and a pIC50 (MCF10A; [4]) of less than 4.60.
`Oc1ncnc2[nH]ncc12` [allopurinol] gave a pIC50 (MCF7 [1]; [3]) of less than 4.60 and a pIC50 (MCF10A; [4]) of less than 4.60.
`CC(C)NCC(O)COc1ccc(CC(N)=O)cc1` (stereo not drawn) [atenolol] showed a pIC50 (MCF7 [1]; [3]) of less than 4.60 and a pIC50 (MCF10A; [4]) of less than 4.60.
With `CC(C)c1c(C(=O)Nc2ccccc2)c(-c2ccccc2)c(-c2ccc(F)cc2)n1CC[C@@H](O)C[C@@H](O)CC(=O)O` [atorvastatin] the pIC50 (MCF7 [1]; [3]) was less than 4.60 and the pIC50 (MCF10A; [4]) was 5.42.
For `Cc1ccc(-c2cc(C(F)(F)F)nn2-c2ccc(S(N)(=O)=O)cc2)cc1` [celecoxib], the pIC50 (MCF7 [1]; [3]) was 5.27, the “toxicity towards MCF7” value (MCF7 [1]; single drug, first round) was “showed toxicity towards MCF7” and the pIC50 (MCF10A; [4]) was 4.65.
Compound `O=C(O)COCCN1CCN(C(c2ccccc2)c2ccc(Cl)cc2)CC1` (stereo not drawn) [cetirizine] has a pIC50 (MCF7 [1]; [3]) of less than 4.60 and a pIC50 (MCF10A; [4]) of less than 4.60.
For `CCN(CC)CCCC(C)Nc1ccnc2cc(Cl)ccc12` (stereo not drawn) [chloroquine], the pIC50 (MCF7 [1]; Homo sapiens, MCF7) was 4.97, the pIC50 (MCF7 [1]; [5]) was less than 4.60 and the “toxicity towards MCF7” value (MCF7 [1]; single drug, first round) was “showed toxicity towards MCF7”. It also gave a pIC50 (MCF10A) of less than 4.60.
`CN/C(=N/CCSCc1nc[nH]c1C)NC#N` [cimetidine] was tested, and the pIC50 (MCF7 [1]; [3]) was less than 4.60, the “toxicity towards MCF7” value (MCF7 [1]; single drug, first round) was “showed toxicity towards MCF7” and the pIC50 (MCF10A; [4]) was less than 4.60.
`O=P1(N(CCCl)CCCl)NCCCO1` (stereo not drawn) [cyclophosphamide] was tested, and the pIC50 (MCF7 [1]; [5]) was less than 4.60 and the pIC50 (MCF10A) was less than 4.60.
For `OCCN(CCO)c1nc(N2CCCCC2)c2nc(N(CCO)CCO)nc(N3CCCCC3)c2n1` [dipyridamole], the pIC50 (MCF7 [1]; [3]) was less than 4.60, the “specificity towards MCF7” value (MCF7 versus MCF10A) was “high specificity towards MCF7” and the “reduction of viability of MCF7” value (MCF7 [2]; retest n ≥ 3) was “significantly reduced the viability of MCF7”. The pIC50 (MCF10A; [4]) was less than 4.60.
In the case of `CCN(CC)C(=S)SSC(=S)N(CC)CC` [disulfiram], the pIC50 (MCF7 [1]; [3]) was 6.69, the “specificity towards MCF7” value (MCF7 versus MCF10A) was “high specificity towards MCF7” and the pIC50 (MCF7 [2]) was 7.23. For the same compound, the pIC50 (MCF10A; [4]) was less than 4.60.
In the case of `COc1cccc2c1C(=O)c1c(O)c3c(c(O)c1C2=O)C[C@@](O)(C(=O)CO)C[C@@H]3O[C@H]1C[C@H](N)[C@H](O)[C@H](C)O1` [doxorubicin], the pIC50 (MCF7 [1]; single drug, first round, maximum dose 25 µM, read-out: MCF7 IC50) was greater than 4.60, the pIC50 (MCF7 [2]) was 6.52 and the “reduction of viability of MCF7” value (MCF7 [2]; retest n ≥ 3) was “also targeted MCF7”.
`C[C@]12CC[C@@H]3c4ccc(O)cc4C[C@@H](CCCCCCCCC[S+]([O-])CCCC(F)(F)C(F)(F)F)[C@H]3[C@@H]1CC[C@@H]2O` (stereo partly drawn) [fulvestrant] was tested, and the pIC50 (MCF7 [1]; [3]) was less than 4.60, the “specificity towards MCF7” value (MCF7 versus MCF10A) was “showed preference for MCF7” and the “reduction of viability of MCF7” value (MCF7 [2]; retest n ≥ 3) was “also targeted MCF7”. It also gave a pIC50 (MCF10A; [4]) of less than 4.60.
With `NS(=O)(=O)c1cc(C(=O)O)c(NCc2ccco2)cc1Cl` [furosemide] the pIC50 (MCF7 [1]; [3]) was less than 4.60 and the pIC50 (MCF10A; [4]) was less than 4.60.
For `CCN(CCO)CCCC(C)Nc1ccnc2cc(Cl)ccc12` (stereo not drawn) [hydroxychloroquine], the pIC50 (MCF7 [1]; [3]) was less than 4.60, the “toxicity towards MCF7” value (MCF7 [1]; single drug, first round) was “showed toxicity towards MCF7” and the “toxicity to MCF7” value (MCF7 [2]; retest n ≥ 3, hydroxychloroquine statement at 25 µM) was “persistent and substantial”. It also gave a pIC50 (MCF10A; [4]) of less than 4.60.
For `CCC(C)n1ncn(-c2ccc(N3CCN(c4ccc(OCC5COC(Cn6cncn6)(c6ccc(Cl)cc6Cl)O5)cc4)CC3)cc2)c1=O` (stereo not drawn) [itraconazole], the pIC50 (MCF7 [1]; [3]) was less than 4.60, the “toxicity towards MCF7” value (MCF7 [1]; single drug, first round) was “showed toxicity towards MCF7” and the pIC50 (MCF10A; [4]) was less than 4.60.
`COC(=O)Nc1nc2ccc(C(=O)c3ccccc3)cc2[nH]1` [mebendazole] was tested, and the pIC50 (MCF7 [1]; [3]) was less than 4.60, the “toxicity towards MCF7” value (MCF7 [1]; single drug, first round) was “showed toxicity towards MCF7” and the “specificity towards MCF7” value (MCF7 versus MCF10A) was “high specificity towards MCF7”. It also gave a pIC50 (MCF10A; [4]) of 4.82.
Work on `CC12CC3CC(C)(C1)CC(N)(C3)C2` [memantine] yielded a pIC50 (MCF7 [1]; [3]) of less than 4.60 and a pIC50 (MCF10A; [4]) of less than 4.60.
`Cc1ncc([N+](=O)[O-])n1CCO` [metronidazole] showed a pIC50 (MCF7 [1]; [3]) of less than 4.60 and a pIC50 (MCF10A; [4]) of less than 4.60.
`O=C(Nc1ccc([N+](=O)[O-])cc1Cl)c1cc(Cl)ccc1O` [niclosamide] was tested, and the pIC50 (MCF7 [1]; [3]) was 6.16, the “toxicity towards MCF7” value (MCF7 [1]; single drug, first round) was “comparatively high toxicity; also recorded: showed toxicity towards MCF7” and the pIC50 (MCF7 [2]) was 5.91. For the same compound, the “reduction of viability of MCF7” value (MCF7 [2]; retest n ≥ 3) was “significantly reduced the viability of MCF7” and the pIC50 (MCF10A; [4]) was 7.21.
With `COc1ccc2[nH]c([S+]([O-])Cc3ncc(C)c(OC)c3C)nc2c1` (stereo not drawn) [omeprazole] the pIC50 (MCF7 [1]; [3]) was less than 4.60 and the pIC50 (MCF10A; [4]) was less than 4.60.
With `CC(=O)c1c(C)c2cnc(Nc3ccc(N4CCNCC4)cn3)nc2n(C2CCCC2)c1=O` [palbociclib] the pIC50 (MCF7 [1]; [3]) was less than 4.60 and the pIC50 (MCF10A; [4]) was less than 4.60.
With `CCN(CC)CCCC(C)Nc1c2ccc(Cl)cc2nc2ccc(OC)cc12` (stereo not drawn) [quinacrine] the pIC50 (MCF7 [1]; [3]) was 5.41, the “toxicity towards MCF7” value (MCF7 [1]; single drug, first round) was “showed toxicity towards MCF7” and the “specificity towards MCF7” value (MCF7 versus MCF10A) was “high specificity towards MCF7”. The pIC50 (MCF7 [2]) was 5.33, the “reduction of viability of MCF7” value (MCF7 [2]; retest n ≥ 3) was “significantly reduced the viability of MCF7” and the pIC50 (MCF10A; [4]) was 4.99.
For `CCCc1nn(C)c2c(=O)[nH]c(-c3cc(S(=O)(=O)N4CCN(C)CC4)ccc3OCC)nc12` [sildenafil], the pIC50 (MCF7 [1]; [3]) was less than 4.60, the “toxicity towards MCF7” value (MCF7 [1]; single drug, first round) was “showed toxicity towards MCF7” and the pIC50 (MCF10A; [4]) was less than 4.60.
With `CCC(C)(C)C(=O)O[C@H]1C[C@@H](C)C=C2C=C[C@H](C)[C@H](CC[C@@H]3C[C@@H](O)CC(=O)O3)[C@H]21` [simvastatin] the pIC50 (MCF7 [1]; [3]) was 5.25, the “toxicity towards MCF7” value (MCF7 [1]; single drug, first round) was “showed toxicity towards MCF7” and the pIC50 (MCF10A; [4]) was 5.14.
